These results are taken from paper PMC5045412, “Inhibition of pro-HGF activation by SRI31215, a novel approach to block oncogenic HGF/MET signaling” (Oncotarget, 2016).

In one experiment the target is T1, recombinant human HGFA (Homo sapiens, UniProt Q04756).
T1 construct: purchased R&D Systems
T1 sequence (Q04756 408-655 limits assumed): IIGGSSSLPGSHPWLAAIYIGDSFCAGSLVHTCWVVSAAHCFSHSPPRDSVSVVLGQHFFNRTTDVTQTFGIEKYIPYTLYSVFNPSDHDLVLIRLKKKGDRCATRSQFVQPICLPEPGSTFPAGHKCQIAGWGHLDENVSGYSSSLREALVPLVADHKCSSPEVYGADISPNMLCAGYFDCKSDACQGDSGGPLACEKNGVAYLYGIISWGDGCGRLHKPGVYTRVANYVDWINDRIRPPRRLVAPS
T1 sequence (Q04756 373-407 partner limits assumed): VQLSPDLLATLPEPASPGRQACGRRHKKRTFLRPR
Nature of the experiment: Proteolytic activation of pro-HGF by HGFA (immunoblotting). To be noted: SRI 31215 10 μM, HAI-1 20 nM, HGFA 1 nM. It is filed as biochemical. As for the experimental part: Recombinant human HAI-1, recombinant human HGFA, and recombinant human HGF propeptide (pro-HGF) were purchased from R&D Systems. SRI 31215 (10 μM) or recombinant human HAI-1 (20 nM) were mixed with activated recombinant human HGFA pro-peptide (1nM) in TNC buffer (pH 8.0) and incubated at room temperature for 30 minutes. Recombinant human pro-HGF (40 ng) was added and incubated at 37°C for 1 hour. The reaction was stopped by SDS-PAGE gel sample buffer and samples were boiled and separated by 12% PAGE. Proteins were transferred onto nitrocellulose membrane, blocked with 5% milk and immunoblotted using antibodies that recognize pro-HGF as well as α and β chains of activated HGF.
(In general: Immunoblotting shows a protein as a band on a membrane.)

The test system of a further experiment is DU145 cells. Details: method as in PMID 26985294. Particulars: dose-dependent; cited from earlier work.
Another experiment deals with trypsin. The experiment in a line: Protease panel, FRET peptide substrate. The experiment is classed as biochemical. As for the experimental part: (§1) The inhibitory activity of SRI 31215 was tested in a panel of six proteases, which included matriptase, hepsin, HGFA, trypsin, thrombin and coagulation factor Xa. All six enzymes were purchased from R&D Systems. The assay buffer used was 50 mM Tris, 20 mM NaCl, 0.01% Tween 20, pH 8.0. The substrate was a custom FRET peptide based on the pro-HGF cleavage sequence (H2N-(EEdans)GKQLRVVNGG(KDabcyl)-amide) pre- pared by New England Peptide. All measurements were made using an Aminco-Bowman Series 2 Luminescence Spectrometer.

In a further experiment the target is T2, matriptase (Homo sapiens, UniProt Q9Y5Y6).
T2 construct: purchased R&D Systems
T2 sequence (Q9Y5Y6 1-855): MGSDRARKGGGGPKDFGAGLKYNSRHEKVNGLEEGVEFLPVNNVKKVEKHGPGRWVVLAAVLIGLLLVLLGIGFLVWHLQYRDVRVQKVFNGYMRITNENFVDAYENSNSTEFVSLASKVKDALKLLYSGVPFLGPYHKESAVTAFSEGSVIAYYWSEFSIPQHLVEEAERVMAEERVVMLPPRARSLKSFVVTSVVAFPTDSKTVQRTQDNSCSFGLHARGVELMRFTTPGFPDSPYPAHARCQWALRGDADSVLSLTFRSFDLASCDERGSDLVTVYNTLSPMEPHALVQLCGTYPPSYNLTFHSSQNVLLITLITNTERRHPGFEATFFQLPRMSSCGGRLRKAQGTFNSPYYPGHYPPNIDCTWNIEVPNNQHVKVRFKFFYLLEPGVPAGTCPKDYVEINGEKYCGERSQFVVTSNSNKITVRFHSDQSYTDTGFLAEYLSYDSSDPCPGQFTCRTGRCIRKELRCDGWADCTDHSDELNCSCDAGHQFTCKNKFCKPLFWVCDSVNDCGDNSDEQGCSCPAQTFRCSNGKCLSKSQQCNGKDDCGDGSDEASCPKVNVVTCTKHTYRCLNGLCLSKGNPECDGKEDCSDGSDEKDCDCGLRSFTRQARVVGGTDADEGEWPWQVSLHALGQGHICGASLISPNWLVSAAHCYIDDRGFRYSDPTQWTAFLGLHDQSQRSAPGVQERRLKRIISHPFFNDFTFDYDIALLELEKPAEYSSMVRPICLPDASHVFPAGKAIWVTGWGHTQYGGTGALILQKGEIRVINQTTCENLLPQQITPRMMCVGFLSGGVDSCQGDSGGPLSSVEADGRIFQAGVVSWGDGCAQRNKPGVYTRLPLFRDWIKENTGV
The experiment in a line: Protease panel, FRET peptide substrate. The experiment is classed as biochemical. As for the experimental part:
as §1

The target of a further experiment is T3, hepsin (Homo sapiens, UniProt P05981).
T3 construct: purchased R&D Systems
The experiment in a line: Protease panel, FRET peptide substrate. It is filed as biochemical. As for the experimental part:
as §1

The next experiment deals with T4, thrombin (Homo sapiens, UniProt P00734).
T4 construct: purchased R&D Systems
Nature of the experiment: Protease panel, FRET peptide substrate. It is filed as biochemical. As for the experimental part:
as §1

In a further experiment the target is T5, HGFA (Homo sapiens, UniProt Q04756).
T5 construct: purchased R&D Systems
T5 sequence (Q04756 373-655): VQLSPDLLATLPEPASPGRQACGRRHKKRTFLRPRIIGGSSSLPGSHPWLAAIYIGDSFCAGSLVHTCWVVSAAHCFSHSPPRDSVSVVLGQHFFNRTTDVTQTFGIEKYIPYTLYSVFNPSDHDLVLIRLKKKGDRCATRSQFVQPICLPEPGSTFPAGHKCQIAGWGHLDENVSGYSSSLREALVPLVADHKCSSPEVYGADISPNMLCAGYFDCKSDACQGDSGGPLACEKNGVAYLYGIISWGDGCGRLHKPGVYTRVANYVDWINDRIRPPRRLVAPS
Nature of the experiment: Protease panel, FRET peptide substrate. It is filed as biochemical. As for the experimental part: as §1

Each structure is given as a SMILES string.

T3 sequence (P05981 whole entry): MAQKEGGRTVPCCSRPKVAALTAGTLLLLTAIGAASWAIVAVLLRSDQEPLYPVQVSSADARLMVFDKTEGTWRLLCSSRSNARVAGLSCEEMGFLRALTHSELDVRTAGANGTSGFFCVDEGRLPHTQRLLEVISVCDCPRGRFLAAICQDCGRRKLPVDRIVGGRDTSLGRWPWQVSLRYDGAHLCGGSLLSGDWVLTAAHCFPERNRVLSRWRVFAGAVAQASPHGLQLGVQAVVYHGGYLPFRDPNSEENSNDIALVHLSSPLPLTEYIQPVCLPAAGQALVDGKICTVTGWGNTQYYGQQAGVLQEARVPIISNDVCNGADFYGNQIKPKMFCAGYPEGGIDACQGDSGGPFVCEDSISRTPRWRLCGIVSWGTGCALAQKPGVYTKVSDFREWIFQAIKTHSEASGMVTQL

For `CC1CN(CC2CCN(Cc3ccccc3)CC2)C(=O)N(c2cccc(C(=N)N)c2)C1` (stereo not shown) [SRI 31215, 3-(3-((1-benzylpiperidin-4-yl)methyl)-5-methyl-2-oxotetrahydropyrimidin-1(2H)-yl)benzimidamide], the “HGFA-induced cleavage of pro-HGF into alpha and beta chains” value on recombinant human HGFA is listed as “inhibited”. The “concentration at which biological activity (block of scattering) was detected” value in the experiment with DU145 cells is reported as 1 μM. Also, in the experiment with trypsin, the selectivity for trypsin result is reported as “acceptable”. In addition, the results for the IC50 at matriptase, at hepsin and against HGFA were 690 nM, 650 nM and 300 nM, respectively. Further, the selectivity for thrombin entry at thrombin was “acceptable”.
